In brackets after ≈: the same amount, converted by molar mass. Where two headings read alike, the source gives them in different places. Numbered stars: 1 amine (or outer) side, 2 acyl side, 3 side chain; on linkers, the order of the positions; unused ones are H or OH. Square brackets hold non-standard residues; d marks the D form. Peptide text beside a SMILES is read from it. ξ: configuration not given here. X5 = CCN(CC)C1(CS[C@H](C(=O)[*:2])N(C)[*:1])CC1; X1 = CN(C)C1(CS[C@H](C(=O)[*:2])N(C)[*:1])CCC1; X6 = CCN(C)C1(CS[C@H](C(=O)[*:2])N(C)[*:1])CC1; ξNMeBmt = C/C=C/C[C@@H](C)[C@@H](O)C(NC)C(=O)O; X2 = CC(C)[C@H](C(=O)[*:2])N(Cc1ccccc1)[*:1]; NMeLeu(4-OH) = CN[C@@H](CC(C)(C)O)C(=O)O; NMeL = CN[C@@H](CC(C)C)C(=O)O; dNMeL = CN[C@H](CC(C)C)C(=O)O; dNMeV = CN[C@@H](C(=O)O)C(C)C; dAbu = CC[C@@H](N)C(=O)O
Key:
[1] = tested on: HCV RNA replicon, Genotype 1b; assay: HCV replicon assay, 1b replicon (LUC); details: Hepatitis C virus, GETYPE1B, in Homo sapiens, 72 h, read-out: mean EC50, Genotype 1b
Excerpt: Compounds were examined in the human hepatoma cell a HCV RNA replicon containing a stable luciferase (LUC) reporter. The HCV RNA replicon ET contains the 5′ end of HCV (with the HCV Internal Ribosome Entry Site (IRES) and the first few amino acids of the HCV core protein) which drives the production of neomycin phosphotransferase (NeoR) fusion protein. A luciferase reported is incorporated into 1b replicon. The EMCV IRES element controls the translation of the HCV structural proteins NS3-NS5. The NS3 protein cleaves the HCV polyprotein to release the mature NS3, NS4A, NS4B, NS5A and NS5B proteins that are required for HCV replication. At the 3′ end of the replicon is the authentic 3′ NTR of HCV. The activity of the LUC reporter is directly proportional to HCV replication levels and positive-control antiviral compounds produce a reproducible antiviral response using the LUC endpoint.
The compounds were dissolved in DMSO at six half-log concentrations. HCV replicon cells were plated out into 96 well plates dedicated for the analysis of cell numbers (cytotoxicity) or antiviral activity and the next day the compounds were added to the appropriate wells. The cells were processed 72 hours later when the cells were still subconfluent. […] Compound EC50 and EC90 values were derived from HCV RNA levels assessed as HCV RNA replicon derived LUC activity. Cytotoxicity was expressed as IC50 and IC90, the concentration of compound that inhibited cell viability by 50% and 90%, respectively. Compound IC50 and IC90 values were calculated using a colorimetric assay as an indication of cell numbers and cytotoxicity. The activity of the LUC reporter is directly proportional to HCV RNA levels in the human cell line. The HCV-replicon assay was validated in parallel experiments using interferon-alpha-2b as a control. The compounds were tested in 1a replicon, (qRT_PCR/TaqMan), 1b replicon (LUC) and 2a replicon (qRT-PCR/TaqMan).

[2] = target: Cyclophilin B (Homo sapiens, UniProt P23284); assay: Cyclophilin binding, competitive ELISA; details: human recombinant cyclophilin
Excerpt: Plates were washed as described above. […] Plates were washed as described above.

[3] = tested on: IL-2 production by stimulated T Cells (Jurkat cells); assay: Inhibition of IL-2 production in stimulated Jurkat cells; format: cell-based; details: Homo sapiens, read-out: IL-2 inhibition IC50
Procedure: Compounds of formula (I) were tested for their inhibition of IL-2 production by stimulated T Cells, using Jurkat cells with anti-CD3 and anti-CD28 co-stimulation. […] Cyclosporine A (control) was also run at a 0.5-Log 9-point titration. starting at 500 ng/mL. All compounds to be tested were dissolved in dimethyl sulfoxide. Cytotoxicity was evaluated with parallel Alamar Blue plates. Jurkat cells were seeded at […] per well in 200 μL growth media in a 96-well plate. Cells were cultured in complete RPMI medium supplemented with 10% fetal bovine serum with one hour incubation at 37° C. with 5% carbon dioxide
PMA and PHA were diluted in complete media to a final concentration of 1 ng/mL and 5 μg/mL respectively. The diluted compounds were mixed 1:1 and 25 μL of the mixture was added per well. The plates were incubated overnight at 37° C. in 5% CO2.
The following day one hundred microliters of cell culture supernatant were transferred from each well to a non-sterile V-bottom plate and stored plate at −80° C. prior to analysis. Determination of IL-2 concentrations in the supernatant was performed using the Pierce Human IL-2 Colorimetric ELISA kit as per the manufacturer's directions (Pierce, #EH2IL25). Cell culture supernatants were diluted with an equal volume of complete RPMI (25 μL sample+25 μL RPMI per well) prior to testing in order to remain in linear range of the assay.
Duplicate wells containing cells in the absence of PMA/PHA and test drug (background) and duplicate wells containing cells stimulated with PMA/PHA in the absence of test drug (100% production of IL-2) were included as controls. Activated cells treated with DMSO were used to normalize IL-2 values. IL-2 standard curves were generated using a 4-parameter curve fit in SoftMax Pro software from Molecular Devices.
Two independent assays were performed to evaluate the effect of cyclosporine A and representative compounds on IL-2 production in PMA/PHA stimulated Jurkat cells (mean values were calculated).

[4] = tested on: Influenza A H1N1 (A/CA/05/09); assay: Anti-influenza virus cytoprotection assay in MDCK cells; format: cell-based; details: read-out: levels of inhibition
[5] = tested on: Influenza A H3N2 (A/HK/8/68); assay: as above; format: cell-based; details: read-out: levels of inhibition
[6] = tested on: Influenza B (B/Allen/45); assay: as above; format: cell-based; details: read-out: levels of inhibition
[7] = PMA/PHA stimulated Jurkat cells, mean of two independent assays

Cyclophilin B, sequence (P23284 34-216): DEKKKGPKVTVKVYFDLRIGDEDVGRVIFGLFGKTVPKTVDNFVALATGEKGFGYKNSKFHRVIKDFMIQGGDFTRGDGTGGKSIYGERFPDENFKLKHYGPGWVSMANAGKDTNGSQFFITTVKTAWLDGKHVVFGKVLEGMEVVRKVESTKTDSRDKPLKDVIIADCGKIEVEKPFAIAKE

SMILES	EC50 [1]	IC50 [2]	IC50 [3, 7]	inhibition at 10 µM [4]	inhibition at 10 µM [5]	inhibition at 10 µM [6]	IC50 ([3]; Jurkat)
C/C=C/C[C@@H](C)[C@@H](O)C1C(=O)N[C@H](CC)C(=O)N(C)[C@H](SCC2(N(CC)CC)CC2)C(=O)N(C)[C@@H](CC(C)(C)O)C(=O)N[C@H](C(C)C)C(=O)N(C)[C@H](CC(C)C)C(=O)N[C@H](C)C(=O)N[C@@H](C)C(=O)N(C)[C@H](CC(C)C)C(=O)N(C)[C@H](CC(C)C)C(=O)N(C)[C@H](C(C)C)C(=O)N1C (some centres unmarked) [Compound D] (cyclo(A[dNMeL][dNMeL][dNMeV][ξNMeBmt][dAbu][X5][NMeLeu(4-OH)][dV][dNMeL][dA]))	70 nM	64 nM	13.4 µg/mL (≈ 9.74 µM)				
C/C=C/C[C@@H](C)[C@@H](O)C1C(=O)N[C@H](CC)C(=O)N(C)[C@H](SCC2(N(C)CC)CC2)C(=O)N(C)[C@@H](CC(C)(C)O)C(=O)N[C@H](C(C)C)C(=O)N(C)[C@H](CC(C)C)C(=O)N[C@H](C)C(=O)N[C@@H](C)C(=O)N(C)[C@H](CC(C)C)C(=O)N(C)[C@H](CC(C)C)C(=O)N(C)[C@H](C(C)C)C(=O)N1C (some centres unmarked) [Compound E] (cyclo(A[dNMeL][dNMeL][dNMeV][ξNMeBmt][dAbu][X6][NMeLeu(4-OH)][dV][dNMeL][dA]))	20 nM		> 13.6 µg/mL				
C/C=C/C[C@@H](C)[C@@H](O)C1C(=O)N[C@H](CC)C(=O)N(C)[C@H](SCC2(N(C)C)CCC2)C(=O)N(C)[C@@H](CC(C)C)C(=O)N(Cc2ccccc2)[C@H](C(C)C)C(=O)N(C)[C@H](CC(C)C)C(=O)N[C@H](C)C(=O)N[C@@H](C)C(=O)N(C)[C@H](CC(C)C)C(=O)N(C)[C@H](CC(C)C)C(=O)N(C)[C@H](C(C)C)C(=O)N1C (some centres unmarked) [Compound F] (cyclo(A[dNMeL][dNMeL][dNMeV][ξNMeBmt][dAbu][X1][NMeL][X2][dNMeL][dA]))	520 nM	43 nM		98%	68%	15%	0.452 µg/mL (≈ 0.315 µM)
